Measured values from patent US10829648B2, “Succinate dehydrogenase inhibitor containing compositions” (priority 2012, dated 2020).
≈ marks a conversion by molar mass, not a printed value. Read-outs that look alike come from different tables or passages of the source.

Experiments:
Format in all cases: cell-based
[1] = test system: Aureobasidium pullulans (ATCC 9348); assay: Microtiter plate MIC test, A. pullulans; conditions: for MIC: Aureobasidium pullulans, ATCC9348, 168 h, read-out: MIC alone
Experimental: (§1) Sample stock solution of Penflufen was prepared in DMSO at 20000 ppm (active ingredient).
(§2) Microorganisms grown on agar slants were harvested using standard microbiological techniques. The numbers of mold spores were determined by counted using a hemocytometer, and then inoculum was prepared in the media shown in Table 2. Then, 190 ul of inoculum was added into each well containing 10 ul of the serially diluted sample solution.

[2] = test system: Coniophora puteana; assay: Agar dilution MIC against decay fungus Coniophora puteana; conditions: for MIC: Coniophora puteana, 216 h, read-out: Coniophora puteana MIC (ppm)
Experimental: (§3) Total 17 samples, including Penflufen, 8 Penflufen-potentiator blends and 8 potentiators were submitted for evaluation.
(§4) Decay fungi Antrodia sinuosa and Coniophora puteana were obtained from GTS microbiology lab fungal collection and cultured on Potato Dextrose Agar at 28° C.
(§5) The samples were diluted to test at a starting concentration of 1,000 ppm active based on the concentration of Penflufen in the samples. Samples were serially diluted into the molten Potato Dextrose Agar before the agar was solidified. The agar plugs with active fungal hyphae growth were inoculated onto the prepared agar surface.
(§6) All concentrations reported are in ppm.

[3] = test system: Aspergillus niger (ATCC 9642); assay: Microtiter plate MIC test, A. niger; conditions: for MIC: Aspergillus niger, ATCC9642, 168 h, read-out: MIC alone
Experimental: as §1, §2

[4] = test system: Antrodia sinuosa; assay: Agar dilution MIC against decay fungus Antrodia sinuosa; conditions: for MIC: Adustoporia sinuosa, 216 h, read-out: Antrodia sinuosa MIC (ppm)
Experimental: as §3, §4, §5, §6

[5] = test system: P. pinophilum; assay: Microtiter plate MIC test, P. pinophilum; conditions: for MIC: 168 h, read-out: MIC alone
Experimental: as §1, §2

[6] = test system: Trichoderma virens (ATCC 9645); assay: Microtiter plate MIC test, T. virens; conditions: for MIC: Trichoderma virens, ATCC9645, 168 h, read-out: MIC alone
Experimental: as §1, §2

[7] = test system: Aspergillus brasiliensis (ATCC 16404); assay: Microtiter plate minimum inhibitory concentration (MIC) test, A. brasiliensis; conditions: for MIC: Aspergillus brasiliensis, ATCC16404, 168 h, read-out: MIC alone
Experimental: as §1, §2

[8] = substance alone, A. pullulans, 28° C., 7 days, ppm
[9] = active or potentiator alone, Potato Dextrose Agar, 28° C., 9 days, complete inhibition of hyphae growth
[10] = substance alone, A. niger, 28° C., 7 days, ppm
[11] = substance alone, P. pinophilum, 28° C., 7 days, ppm
[12] = substance alone, T. virens, 28° C., 7 days, ppm
[13] = substance alone, A. brasiliensis, 28° C., 7 days, ppm

Compound | MIC alone [1, 8] | Coniophora puteana MIC (ppm) [2, 9] | MIC alone [3, 10] | Antrodia sinuosa MIC (ppm) [4, 9] | MIC alone [5, 11] | MIC alone [6, 12] | MIC alone [7, 13] | further results
Isononoic Acid | 625 ppm | 156 ppm | 625 ppm | 313 ppm | 625 ppm | 625 ppm | 1250 ppm | –
Cc1ccc(S(N)(=O)=O)cc1 | 5000 ppm | – | 5000 ppm | – | 5000 ppm | 5000 ppm | 5000 ppm | –
CC(=O)c1c([O-])cc(C)oc1=O.CC(=O)c1c([O-])cc(C)oc1=O.[Zn+2] [DHA Zn, Dehydroacetic acid zinc salt] | 1000 ppm | 125 ppm | 500 ppm | 125 ppm | >1000 ppm | 250 ppm | 500 ppm | –
CCCCCCCC/C=C\CCCCCCCCN [Oleylamine, (Z)-Octa-9-decenylamine] | 0.31 ppm | 50.0 ppm | 1.25 ppm | 50.0 ppm | 1.25 ppm | 0.625 ppm | 2.5 ppm | –
cocoamine oxide [Barlox 12] | 15.62 ppm | 250 ppm | 15.62 ppm | 62.5 ppm | 62.5 ppm | 125 ppm | 62.5 ppm | –
Tris(2-hydroxyethyl)-N-tallowalkyl-1,3-diaminopropane [Ethoduomeen] | 9.76 ppm | 2500 ppm | <4.88 ppm | 625 ppm | <4.88 ppm | <4.88 ppm | <4.88 ppm | –
Cc1nn(C)c(F)c1C(=O)Nc1ccccc1C(C)CC(C)C (centres unmarked) [Penflufen, N-[2-(1,3-dimethylbutyl)phenyl]-5-fluoro-1,3-dimethyl-1H-pyrazole-4-carboxamide, reference compound] | – | – | – | – | – | – | – | MIC [1, 8]: 500 µg/mL (≈ 1580 µM); MIC [2, 9]: 125 µg/mL; MIC [3, 10]: 7.81 µg/mL (≈ 24.6 µM); MIC [4, 9]: 62.5 µg/mL; MIC [5, 11]: > 1000 µg/mL; MIC [6, 12]: > 1000 µg/mL; MIC [7, 13]: 15.7 µg/mL (≈ 49.3 µM)
O=C([O-])c1ccccc1.[Na+] [Sodium benzoate] | – | 313 ppm | – | 1250 ppm | – | – | – | –
CCCCCCCCCCCCN(C)C [Barlene 12, N,N-Dimethyl-N-dodecylamine] | – | – | – | – | – | – | – | MIC [1]: 7.81 µg/mL (≈ 36.6 µM); MIC [2]: 500 µg/mL; MIC [3]: 250 µg/mL (≈ 1170 µM); MIC [4]: 250 µg/mL; MIC [5]: 7.81 µg/mL (≈ 36.6 µM); MIC [6]: 7.81 µg/mL (≈ 36.6 µM); MIC [7]: 31.2 µg/mL (≈ 146 µM)
